For this assay, the system named is C. albicans. Kind of assay: Broth microdilution assay of synergistic lethality with 4 μg/mL FLC (recovery on drug-free YPD). It counts as cell-based, Candida albicans. To be noted: concentration of the compound that is synergistically lethal with 4 μg/mL FLC; C. albicans; recovery on drug-free YPD. (Broth dilution looks for growth in wells or tubes with falling amounts of substance.)

Structures can show the parent of a compound that is named as a salt.

Regarding `CC(O)C(=O)O.CCOc1ccc2nc3cc(N)ccc3c(N)c2c1.O` [Ethacridine (lactate monohydrate)], the Synergistic lethal concentrations was determined as 100 µM.

With `CCOC(=O)c1cncn1[C@H](C)c1ccccc1.Cl` [Etomidate (hydrochloride)], the Synergistic lethal concentrations worked out at 100 µM.

Take `C=CCc1ccc(O)c(OC)c1` [Eugenol]: the Synergistic lethal concentrations worked out at 100 µM.

As for `Cc1cnc(Nc2ccc(OCCN3CCCC3)cc2)nc1Nc1cccc(S(=O)(=O)NC(C)(C)C)c1` [Fedratinib], the Synergistic lethal concentrations turned out to be 100 µM.

Regarding `CCOC(=O)C1=C(C)NC(C)=C(C(=O)OC)C1c1cccc(Cl)c1Cl` (stereo not shown) [Felodipine], the Synergistic lethal concentrations came out at 100 µM.

With `CC(C(=O)[O-])c1cccc(Oc2ccccc2)c1.CC(C(=O)[O-])c1cccc(Oc2ccccc2)c1.O.O.[Ca+2]` (stereo not shown) [Fenoprofen (Calcium hydrate)], the Synergistic lethal concentrations was found to be 100 µM.

Turning to `O=C(O)c1ccccc1Nc1cccc(C(F)(F)F)c1` [Flufenamic acid], the Synergistic lethal concentrations is 100 µM.

As to `Cl.Cl.Fc1ccc(C(c2ccc(F)cc2)N2CCN(C/C=C/c3ccccc3)CC2)cc1` [Flunarizine (dihydrochloride)], the Synergistic lethal concentrations was 50 µM.

As to `CC(C)n1c(/C=C/C(O)CC(O)CC(=O)[O-])c(-c2ccc(F)cc2)c2ccccc21.[Na+]` (stereo not shown) [Fluvastatin (sodium)], the Synergistic lethal concentrations came to 6.25 µM.

Turning to `COCCCC/C(=N\OCCN)c1ccc(C(F)(F)F)cc1.O=C(O)/C=C\C(=O)O` [Fluvoxamine (maleate)], the Synergistic lethal concentrations is 100 µM.

For `O=C(CCCN1CCC(O)(c2ccc(Cl)cc2)CC1)c1ccc(F)cc1` [Haloperidol], the Synergistic lethal concentrations stood at 100 µM.

In the case of `CCCCCCc1ccc(O)cc1O` [Hexylresorcinol], the Synergistic lethal concentrations was 12.5 µM.

As for `Cl.Cl.OCCOCCN1CCN(C(c2ccccc2)c2ccc(Cl)cc2)CC1` (stereo not shown) [Hydroxyzine (dihydrochloride)], the Synergistic lethal concentrations came to 100 µM.

As to `O=C(O)c1cc2ccccc2c(Cc2c(O)c(C(=O)O)cc3ccccc23)c1O.OCCOCCN1CCN(C(c2ccccc2)c2ccc(Cl)cc2)CC1` [Hydroxyzine (pamoate)], the Synergistic lethal concentrations is 100 µM.

For the compound `COc1ccc2c(c1)c(CC(=O)O)c(C)n2C(=O)c1ccc(Cl)cc1` [Indomethacin], the Synergistic lethal concentrations was determined as 100 µM.

As to `C/C=C(/C)C(=O)O[C@H]1C(C)=C[C@]23C(=O)[C@@H](C=C(CO)[C@@H](O)[C@]12O)[C@H]1[C@@H](C[C@H]3C)C1(C)C` [Ingenol Mebutate], the Synergistic lethal concentrations was determined as 100 µM.

Consider `COC(=O)N[C@H](C(=O)N1CC2(CC2)C[C@H]1c1nc(-c2ccc3c(c2)C(F)(F)c2cc(-c4ccc5[nH]c([C@@H]6[C@H]7CC[C@H](C7)N6C(=O)[C@@H](NC(=O)OC)C(C)C)nc5c4)ccc2-3)c[nH]1)C(C)C` [Ledipasvir], for which the Synergistic lethal concentrations was 100 µM.

With `CCOC(=O)C1=C(COCCN)NC(C)=C(C(=O)OC)[C@@H]1c1ccccc1Cl.O=S(=O)(O)c1ccccc1` [Levamlodipine besylate], the Synergistic lethal concentrations turned out to be 100 µM.

Take `O=C(NC1CCN(CCCCC2(C(=O)NCC(F)(F)F)c3ccccc3-c3ccccc32)CC1)c1ccccc1-c1ccc(C(F)(F)F)cc1` [Lomitapide]: the Synergistic lethal concentrations turned out to be 6.25 µM.

Consider `CC[C@H](C)C(=O)O[C@H]1C[C@@H](C)C=C2C=C[C@H](C)[C@H](CC[C@@H]3C[C@@H](O)CC(=O)O3)[C@H]21` [Lovastatin], for which the Synergistic lethal concentrations turned out to be 100 µM.

Turning to `CN1CCN(C2=Nc3ccccc3Oc3ccc(Cl)cc32)CC1` [Loxapine], the Synergistic lethal concentrations came to 100 µM.

Turning to `C=CCc1ccc(O)c(-c2cc(CC=C)ccc2O)c1` [Magnolol], the Synergistic lethal concentrations came out at 12.5 µM.

As to `CNCCCC12CCC(c3ccccc31)c1ccccc12.Cl` [Maprotiline (hydrochloride)], the Synergistic lethal concentrations was found to be 50 µM.

`CN1CCc2c(c3ccccc3n2Cc2ccccc2)C1.CN1CCc2c(c3ccccc3n2Cc2ccccc2)C1.O=S(=O)(O)c1cccc2c(S(=O)(=O)O)cccc12` [Mebhydrolin (napadisylate)]: the Synergistic lethal concentrations was found to be 100 µM.

For `CN1CCc2c(c3ccccc3n2Cc2ccccc2)C1` [Mebhydrolin], the Synergistic lethal concentrations came to 100 µM.

Regarding `Cl.OC(c1cc(C(F)(F)F)nc2c(C(F)(F)F)cccc12)C1CCCCN1` (stereo not shown) [Mefloquine (hydrochloride)], the Synergistic lethal concentrations turned out to be 25 µM.

For the compound `CN(C)CCC=C1c2ccccc2C(C)(C)c2ccccc21.Cl` [Melitracen (hydrochloride)], the Synergistic lethal concentrations was 50 µM.

As to `CC1=CC(=O)c2ccccc2C1=O` [Menadione], the Synergistic lethal concentrations was determined as 100 µM.

Take `c1ccc2c(c1)Sc1ccccc1N2CC1CN2CCC1CC2` (stereo not shown) [Mequitazine]: the Synergistic lethal concentrations was determined as 25 µM.

Take `CN1C[C@H](CNC(=O)OCc2ccccc2)C[C@@H]2c3cccc4c3c(cn4C)C[C@H]21` [Metergoline]: the Synergistic lethal concentrations turned out to be 100 µM.

With `CN1CCCC(CC2c3ccccc3Sc3ccccc32)C1.Cl.O` (stereo not shown) [Metixene hydrochloride hydrate], the Synergistic lethal concentrations is 25 µM.

Turning to `CCCCCCCCCCCCCCCCOP(=O)([O-])OCC[N+](C)(C)C` [Miltefosine], the Synergistic lethal concentrations stood at 100 µM.

With `CCCOc1ccc(S(=O)(=O)N2CCN(CCO)CC2)cc1-c1nc2c(CCC)cn(CC)c2c(=O)[nH]1.Cl.Cl` [Mirodenafil (dihydrochloride)], the Synergistic lethal concentrations is 100 µM.

On to `NC(=O)Cc1cccc(C(=O)c2ccccc2)c1N` [Nepafenac], for which the Synergistic lethal concentrations worked out at 100 µM.

In the case of `COC(=O)C1=C(C#N)NC(C)=C(C(=O)OC(C)C)C1c1cccc([N+](=O)[O-])c1` (stereo not shown) [Nilvadipine], the Synergistic lethal concentrations stood at 100 µM.

Turning to `COC(=O)c1ccc2c(c1)NC(=O)/C2=C(\Nc1ccc(N(C)C(=O)CN2CCN(C)CC2)cc1)c1ccccc1` [Nintedanib], the Synergistic lethal concentrations is 100 µM.

Take `CNCCC=C1c2ccccc2CCc2ccccc21.Cl` [Nortriptyline (hydrochloride)]: the Synergistic lethal concentrations was found to be 100 µM.

As to `CCCCCCCCN=c1ccn(CCCCCCCCCCn2ccc(=NCCCCCCCC)cc2)cc1.Cl.Cl` [Octenidine (dihydrochloride)], the Synergistic lethal concentrations was 1.5625 µM.

Consider `C=CC(=O)Nc1cccc(Oc2nc(Nc3ccc(N4CCN(C)CC4)cc3)nc3ccsc23)c1` [Olmutinib], for which the Synergistic lethal concentrations is 100 µM.

Turning to `C=CC(=O)Nc1cc(Nc2nccc(-c3cn(C)c4ccccc34)n2)c(OC)cc1N(C)CCN(C)C.CS(=O)(=O)O.CS(=O)(=O)O` [Osimertinib (dimesylate)], the Synergistic lethal concentrations is 100 µM.

With `C=CC(=O)Nc1cc(Nc2nccc(-c3cn(C)c4ccccc34)n2)c(OC)cc1N(C)CCN(C)C.CS(=O)(=O)O` [Osimertinib mesylate], the Synergistic lethal concentrations came to 50 µM.

Regarding `C=CC(=O)Nc1cc(Nc2nccc(-c3cn(C)c4ccccc34)n2)c(OC)cc1N(C)CCN(C)C` [Osimertinib], the Synergistic lethal concentrations amounted to 100 µM.

As to `CCCCCCCCOc1ccccc1C(=O)Nc1ccc(C(=O)OCC[N+](C)(CC)CC)cc1.[Br-]` [Otilonium (bromide)], the Synergistic lethal concentrations is 6.25 µM.

Turning to `O=C(O)CCc1nc(-c2ccccc2)c(-c2ccccc2)o1` [Oxaprozin], the Synergistic lethal concentrations is 100 µM.

On to `CN(C(=O)CN(CCO)CC(=O)N(C)C(C)(C)Cc1ccccc1)C(C)(C)Cc1ccccc1` [Oxethazaine], for which the Synergistic lethal concentrations was 50 µM.

Take `Cc1[nH]c2ccccc2c1CCNCc1ccc(/C=C/C(=O)NO)cc1` [Panobinostat]: the Synergistic lethal concentrations was determined as 100 µM.

For `Cl.Fc1ccc([C@@H]2CCNC[C@H]2COc2ccc3c(c2)OCO3)cc1` [Paroxetine (hydrochloride)], the Synergistic lethal concentrations worked out at 50 µM.

As for `C1CCC(C(CC2CCCCN2)C2CCCCC2)CC1` (stereo not shown) [Perhexiline maleate], the Synergistic lethal concentrations was found to be 50 µM.

Turning to `N#Cc1ccc2c(c1)N(CCCN1CCC(O)CC1)c1ccccc1S2` [Pericyazine], the Synergistic lethal concentrations was determined as 100 µM.

Turning to `OCCN1CCN(CCCN2c3ccccc3Sc3ccc(Cl)cc32)CC1` [Perphenazine], the Synergistic lethal concentrations came out at 25 µM.

With `CN1CCC(=C2c3ccccc3Sc3ccccc32)CC1` [Pimethixene maleate], the Synergistic lethal concentrations turned out to be 12.5 µM.

With `Cc1cc(CC(C)CC(C)(C)C)n(O)c(=O)c1.NCCO` (stereo not shown) [Piroctone olamine], the Synergistic lethal concentrations was determined as 100 µM.

On to `O=C([O-])C[C@H](O)C[C@H](O)/C=C/c1c(C2CC2)nc2ccccc2c1-c1ccc(F)cc1.O=C([O-])C[C@H](O)C[C@H](O)/C=C/c1c(C2CC2)nc2ccccc2c1-c1ccc(F)cc1.[Ca+2]` [Pitavastatin (Calcium)], for which the Synergistic lethal concentrations is 1.5625 µM.

As for `CN1CCC(=C2c3ccccc3CCc3sccc32)CC1` [Pizotifen], the Synergistic lethal concentrations was 100 µM.

Turning to `Cc1ccc(C(=O)Nc2ccc(CN3CCN(C)CC3)c(C(F)(F)F)c2)cc1C#Cc1cnc2cccnn12` [Ponatinib], the Synergistic lethal concentrations was 100 µM.

For the compound `CO[C@]1(C(=O)N[C@@H](C)c2ccc(-n3cc(F)cn3)nc2)CC[C@H](c2nc(C)cc(Nc3cc(C)[nH]n3)n2)CC1` [Pralsetinib], the Synergistic lethal concentrations was 100 µM.

On to `CCCCOc1ccc(OCCCN2CCOCC2)cc1.Cl` [Pramocaine (hydrochloride)], for which the Synergistic lethal concentrations is 100 µM.

In the case of `[H]/N=C(\N/C(=N/[H])Nc1ccc(Cl)cc1)NC(C)C` [Proguanil], the Synergistic lethal concentrations is 100 µM.

In the case of `CNCCCC1c2ccccc2C=Cc2ccccc21.Cl` [Protriptyline (hydrochloride)], the Synergistic lethal concentrations came to 100 µM.

Consider `O=C(O)/C=C/C(=O)O.OCCOCCN1CCN(C2=Nc3ccccc3Sc3ccccc32)CC1.OCCOCCN1CCN(C2=Nc3ccccc3Sc3ccccc32)CC1` [Quetiapine (hemifumarate)], for which the Synergistic lethal concentrations came out at 100 µM.

Turning to `OCCOCCN1CCN(C2=Nc3ccccc3Sc3ccccc32)CC1` [Quetiapine], the Synergistic lethal concentrations was determined as 100 µM.
